Assay results from patent US8283373B2, “Inhibitors of cytosolic phospholipase A2” (Pfizer Inc., priority 2005, dated 2012).

What was measured:
serum thromboxane B2 [1] = experiment: Thromboxane B2 levels in the ApoE KO mouse model; assay type: in vivo; details: ApoE KO mice, 10 mg/kg by oral gavage; vehicle 267.9±34.3
Experimental: Blood was collected through the retro-orbital siunus and left to coagulate at 37° C. for one hour. Serum was then isolated and assayed for thromboxane B2 by ELISA.
In a separate experiment, ApoE KO mice were dosed with vehicle or the compound of Example 25 at 10 mg/kg by oral gavage. Blood was collected through the retro-orbital siunus and left to coagulate at 37° C. for one hour. Serum was then isolated and assayed for thromboxane B2 by ELISA.

TXB2 = experiment: Rat Whole Blood Assay (A23187-stimulated TXB2); assay type: cell-based; details: Rattus norvegicus; A23187 5 μM
How it was run: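 Heparinized male Sprague-Dawley rat blood pre-incubated 15 min at 37 °C with compound or DMSO, then stimulated with 5 μM (final) A23187 for 10 min at 37 °C. Stopped with 20 mM EDTA; TXB2 in methanol-extracted plasma measured by ELISA.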

[2] = system: experimental autoimmune encephalomyelitis (EAE); experiment: Experimental autoimmune encephalomyelitis (EAE) model of multiple sclerosis; assay type: in vivo, mouse; details: administered from the time of immunization, or in mice with or close to EAE
Experimental: Six groups of B6 mice were immunized with MOG/CFA and injected with pertussis toxin to induce experimental autoimmune encephalomyelitis (EAE), an animal model of Multiple sclerosis. Three groups of mice were treated with vehicle, 4-{3-[1-benzhydryl-5-chloro-2-(2-{[(2,6-dimethylbenzyl)sulfonyl]amino}ethyl)-1H-indol-3-yl]propyl}benzoic acid (Compound A), or 4-{2-[1-benzhydryl-5-chloro-2-(2-{[(3,4-dichlorobenzyl)sulfonyl]amino}-ethyl)-1H-indol-3-yl]ethoxy}benzoic acid (Compound B) from the day of Immunization (orally, 100 mg/kg, twice/day). Another three groups of mice were treated with vehicle, Compound A or Compound B starting on the day of EAE onset (day 15) (orally, 100 mg/kg, twice/day). […] The results are shown in the Table below, wherein mean clinical score is a mean of clinical evaluation of each animal for that particular day.
Animals are Scored as Follows:
• 0—no clinical signs of EAE (no paralysis) • 1—paralysis of tail • 2—paralysis of tail and partial hind leg paralysis • 3—paralysis of tail and complete hind leg paralysis • 4—paralysis of tail, complete hind leg paralysis and a partial front leg paralysis • 5—moribund animal (all four limbs paralyzed, lack of responsiveness, these mice were immediately euthanized).
In addition, the compounds of Examples 14 and 25 were also found to be efficacious in the mouse experimental autoimmune encephalomyelitis (EAE) model of multiple sclerosis. As shown by the data in the Table below, these compounds led to a delayed onset of disease and reduced severity of disease when administered orally in doses as low as 2.5 mg/kg.

cPLA2α = target: T1, cPLA2α (Homo sapiens, UniProt P47712); experiment: GLU Micelle Assay; assay type: biochemical
T1 sequence (P47712 1-749): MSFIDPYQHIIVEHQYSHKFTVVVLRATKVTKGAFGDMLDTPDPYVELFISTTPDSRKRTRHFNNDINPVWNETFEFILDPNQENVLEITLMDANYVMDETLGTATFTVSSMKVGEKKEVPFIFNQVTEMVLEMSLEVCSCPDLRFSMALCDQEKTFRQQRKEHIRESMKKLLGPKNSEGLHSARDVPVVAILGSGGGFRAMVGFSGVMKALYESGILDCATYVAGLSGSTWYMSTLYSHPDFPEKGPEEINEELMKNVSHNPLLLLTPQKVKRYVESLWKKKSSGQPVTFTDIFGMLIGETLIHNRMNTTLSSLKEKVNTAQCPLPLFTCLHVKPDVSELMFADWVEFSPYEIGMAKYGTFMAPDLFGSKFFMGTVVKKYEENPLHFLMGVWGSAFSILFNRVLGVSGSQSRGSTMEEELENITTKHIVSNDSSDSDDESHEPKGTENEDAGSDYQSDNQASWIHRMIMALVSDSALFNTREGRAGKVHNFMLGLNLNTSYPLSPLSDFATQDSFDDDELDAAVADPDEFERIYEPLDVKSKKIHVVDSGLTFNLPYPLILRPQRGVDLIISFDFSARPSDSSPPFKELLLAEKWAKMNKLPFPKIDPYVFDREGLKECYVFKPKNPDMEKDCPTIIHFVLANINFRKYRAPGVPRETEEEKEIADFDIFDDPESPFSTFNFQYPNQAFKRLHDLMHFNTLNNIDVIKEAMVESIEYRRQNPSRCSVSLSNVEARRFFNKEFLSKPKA
How it was run: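 Fluorogenic micelle assay with 1 μg/ml cPLA2α and 90 μM GLU substrate plus 120 μM DTPC in 940 μM Triton X-100, 50 mM Hepes pH 7.4, 0.3 mM EDTA, 1 mM CaCl2, 300 mM KCl. Fluorescence (ex 355/em 460) was read every 4 min for 84 min. Percent inhibition came from slopes relative to positive and negative controls.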

serum thromboxane B2 [3] = experiment: Thromboxane B2 levels in rats with FeCl3 induced thrombosis; assay type: in vivo, rat; details: rats subjected to ferric chloride injury, ELISA
Experimental: Blood was collected from rats that were dosed with vehicle, the compound of Example 14 or the compound of Example 25, and subjected to the ferric chloride Injury protocol above. Blood was collected from the vena cava and blood coagulation was allowed to take place for 1 hour at 37 degree Celsius. Serum was then isolated and serum thromboxane B2 levels were determined by ELISA.

[4] = system: Human platelet aggregation; experiment: Platelet Function Analyzer (PFA-100) study; assay type: cell-based; details: whole human blood
Experimental: Human platelet aggregation was studied using the platelet function analyzer (PFA-100®). Human blood was collected from volunteers who had denied taking any platelet inhibitory medications over the previous two weeks. Blood was collected in 3.2% sodium citrate Vacutainer tubes (Becton Dickinson). Tubes were inverted 5 times and the blood was transferred to 15 ml polypropylene conical tubes. […] Tubes were inverted 10 times to mix, and allowed to sit at room temperature for 10 minutes prior to run in PFA-100. The manufacturers protocol was followed for the PFA-100 using Collagen/Epinephrine cartridges (0.5% DMSO alone in whole blood gave closure times of 125+/−13.9 seconds). Maximum closure time is 300 seconds, as set by the manufacturer.
All compounds were efficacious in the platelet function assay.

[5] = system: FeCl3-induced arterial thrombosis; experiment: FeCl3-induced model of arterial thrombosis; assay type: in vivo; details: rat, 25 mg/kg oral gavage 2 h before FeCl3 injury
Experimental: Two hours prior to induction of vascular injury, Sprague Dawley outbreed rats (80-100 gram of body weight) received 4-(3-{5-chloro-1-(diphenylmethyl)-2-[2-({[2-fluoro-6-(trifluoromethyl)benzyl]sulfonyl}amino)ethyl]-1H-indol-3-yl}propyl)benzoic acid (Example 14) or 4-(3-{5-chloro-1-(diphenylmethyl)-2-[2-({[2-(trifluoromethoxy)benzyl]sulfonyl}amino)ethyl]-1H-indol-3-yl}propyl)benzoic acid (Example 25) at a dose of 25 mg/kg by oral gavage. The total volume of gavage was 0.5 ml. The control group of animals had been treated with only vehicle. Fifteen minutes before vascular injury rats were anesthetized by an intramuscular injection of a ketamine/xylazyne mixture. Following anesthesia the left carotid artery was dissected and exposed for further measurements. For induction of prothrombotic injury, a round piece of filter paper (2 mm in diameter) soaked in 10% of FeCl3 solution was applied onto the wall of the exposed vessel. After 5 minutes the filter paper was removed and the 1PRB perivasular Doppler flow probe (Transonic Systems Inc.) was secured around the carotid artery to measure blood flow. Blood flow was recorded for a total period of 30 minutes using Transonic Flow Meter (model TS420, Transonic Systems Inc.) and Windaq data acquisition software.

| IC50 (TXB2) | IC50 (cPLA2α) | Structure (SMILES) | serum Thromboxane concentration (serum thromboxane B2 [1]) | prevention of EAE / reduction of clinical severity [2] | serum thromboxane B2 levels (FIG. 3) (serum thromboxane B2 [3]) | platelet aggregation in human blood, in vitro (PFA-100, FIG. 1) [4] | efficacy in PFA-100 platelet function assay ([4]; at concentrations as low as 0.3 μg/ml) | blood flow and thrombus formation (FIG. 2) [5] | PFA-100 closure time ([4]; Collagen/Epinephrine cartridges, 1.25 μg/ml) |
| --- | --- | --- | --- | --- | --- | --- | --- | --- | --- |
| 0.03 µM | 0.013 µM | O=C(O)c1ccc(CCCc2c(CCNS(=O)(=O)Cc3ccccc3OC(F)(F)F)n(C(c3ccccc3)c3ccccc3)c3ccc(Cl)cc23)cc1 [Example 25, 4-(3-{5-chloro-1-(diphenylmethyl)-2-[2-({[2-(trifluoromethoxy)benzyl]sulfonyl}amino)ethyl]-1H-indol-3-yl}propyl)benzoic acid] | 9.4 ± 5.0 ng/mL | can prevent EAE | reduction of serum thromboxane B2 levels | inhibition of platelet aggregation | efficacious | – | – |
| 0.02 µM | 0.03 µM | O=C(O)c1ccc(CCCc2c(CCNS(=O)(=O)Cc3c(F)cccc3C(F)(F)F)n(C(c3ccccc3)c3ccccc3)c3ccc(Cl)cc23)cc1 [Example 14, 4-(3-{5-chloro-1-(diphenylmethyl)-2-[2-({[2-fluoro-6-(trifluoromethyl)benzyl]sulfonyl}amino)ethyl]-1H-indol-3-yl}propyl)benzoic acid] | – | can prevent EAE | reduction of serum thromboxane B2 levels | inhibition of platelet aggregation | – | improved blood flow and reduction of thrombus formation | increased closure time |
| 0.12 µM | 0.068 µM | O=C(O)c1ccc(CCCc2c(CCNS(=O)(=O)CCc3ccccc3C(F)(F)F)n(C(c3ccccc3)c3ccccc3)c3ccc(Cl)cc23)cc1 [Example 15, 4-[3-(5-chloro-1-(diphenylmethyl)-2-{2-[({2-[2-(trifluoromethyl)phenyl]ethyl}sulfonyl)amino]ethyl}-1H-indol-3-yl)propyl]benzoic acid] | – | – | – | – | – | improved blood flow and reduction of thrombus formation | – |
